Reference: ChEMBL document CHEMBL1201862, “PubChem BioAssay data set” (2004)
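The compound was tested at five concentrations on cells cultured in 96-well plates, with a 48-hour exposure period. At the GI50, growth is halved.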 The source made the active and inactive calls. Cut-off read from the data, not from the text of the source: active = GI50 up to about 1.1 µM and inactive = higher.

What was measured:
Assay in all cases: growth of human tumour cells (NCI), 48 h
HOP-62 = test system: HOP-62
SN12C = test system: SN12C
OVCAR-8 = test system: OVCAR-8
NCI-H23 = test system: NCI-H23
CCRF-CEM = test system: CCRF-CEM
EKVX = test system: EKVX
OVCAR-3 = test system: OVCAR-3
A498 = test system: A498
M14 = test system: M14
UACC-62 = test system: UACC-62
K562 = test system: K562
SNB-19 = test system: SNB-19
ACHN = test system: ACHN
NCI-H522 = test system: NCI-H522
HCT-15 = test system: HCT-15
NCI-H460 = test system: NCI-H460
SK-OV-3 = test system: SK-OV-3
KM12 = test system: KM12
SK-MEL-28 = test system: SK-MEL-28
RXF 393 = test system: RXF 393

SMILES	GI50 (HOP-62)	GI50 (SN12C)	GI50 (OVCAR-8)	GI50 (NCI-H23)	GI50 (CCRF-CEM)	GI50 (EKVX)	GI50 (OVCAR-3)	GI50 (A498)	GI50 (M14)	GI50 (UACC-62)	GI50 (K562)	GI50 (SNB-19)	GI50 (ACHN)	GI50 (NCI-H522)	GI50 (HCT-15) [µM]	GI50 (NCI-H460)	GI50 (SK-OV-3)	GI50 (KM12)	GI50 (SK-MEL-28)	GI50 (RXF 393)
COC(=O)c1ccc(/C=C2\N=C(C)OC2=O)cc1	> 100 µM (inactive)	> 100 µM (inactive)	> 100 µM (inactive)	> 100 µM (inactive)	> 100 µM (inactive)	> 100 µM (inactive)	> 100 µM (inactive)	> 100 µM (inactive)	> 100 µM (inactive)	> 100 µM (inactive)	> 100 µM (inactive)	> 100 µM (inactive)	> 100 µM (inactive)	59 µM (inactive)	> 100	> 100 µM (inactive)	> 100 µM (inactive)	> 100 µM (inactive)	> 100 µM (inactive)	–
COC(=O)/C=C(\C)CCC1SC1(C)C (stereo not given)	> 100 µM (inactive)	> 100 µM (inactive)	> 100 µM (inactive)	> 100 µM (inactive)	> 100 µM (inactive)	> 100 µM (inactive)	–	> 100 µM (inactive)	> 100 µM (inactive)	> 100 µM (inactive)	> 100 µM (inactive)	> 100 µM (inactive)	> 100 µM (inactive)	> 100 µM (inactive)	> 100	> 100 µM (inactive)	> 100 µM (inactive)	> 100 µM (inactive)	> 100 µM (inactive)	> 100 µM (inactive)
O=c1[nH]c(-c2ccccc2)nc2cc([N+](=O)[O-])c(/C(Cl)=C/c3ccccc3)cc12	–	36.6 µM (inactive)	19.7 µM (inactive)	43.3 µM (inactive)	–	46.5 µM (inactive)	30 µM (inactive)	–	–	15.1 µM (inactive)	7.5 µM (inactive)	41 µM (inactive)	68.2 µM (inactive)	17.3 µM (inactive)	7.82	–	27.3 µM (inactive)	26.2 µM (inactive)	26.2 µM (inactive)	14.4 µM (inactive)
COc1ccc(/C(Cl)=C(\C=O)c2ccc(OC)cc2)cc1	> 100 µM (inactive)	> 100 µM (inactive)	59.4 µM (inactive)	> 100 µM (inactive)	22.2 µM (inactive)	> 100 µM (inactive)	64.9 µM (inactive)	> 100 µM (inactive)	> 100 µM (inactive)	> 100 µM (inactive)	63 µM (inactive)	> 100 µM (inactive)	84.3 µM (inactive)	18.3 µM (inactive)	43.7	31.5 µM (inactive)	> 100 µM (inactive)	–	–	> 100 µM (inactive)
S=C1SC(=N\c2ccccc2)/C(=N/c2ccccc2)N1c1ccccc1	28 µM (inactive)	> 100 µM (inactive)	93.8 µM (inactive)	> 100 µM (inactive)	18.1 µM (inactive)	–	34.4 µM (inactive)	> 100 µM (inactive)	> 100 µM (inactive)	22.8 µM (inactive)	> 100 µM (inactive)	> 100 µM (inactive)	–	> 100 µM (inactive)	> 100	> 100 µM (inactive)	> 100 µM (inactive)	> 100 µM (inactive)	> 100 µM (inactive)	> 100 µM (inactive)
CN(N)c1nc(N)c(C#N)c(C#N)c1C#N	> 10 µM (inactive)	> 10 µM (inactive)	> 10 µM (inactive)	> 10 µM (inactive)	> 10 µM (inactive)	–	> 10 µM (inactive)	–	> 10 µM (inactive)	> 10 µM (inactive)	> 10 µM (inactive)	> 10 µM (inactive)	> 10 µM (inactive)	> 10 µM (inactive)	> 10	–	> 10 µM (inactive)	> 10 µM (inactive)	> 10 µM (inactive)	–
CC(=O)OC/C=C\Cn1ncc(=O)[nH]c1=O	20.8 µM (inactive)	22.9 µM (inactive)	23.7 µM (inactive)	13.6 µM (inactive)	17.3 µM (inactive)	20.3 µM (inactive)	28.2 µM (inactive)	16.4 µM (inactive)	19 µM (inactive)	–	23 µM (inactive)	33.4 µM (inactive)	21.6 µM (inactive)	16.1 µM (inactive)	19.2	23.3 µM (inactive)	–	17 µM (inactive)	21.4 µM (inactive)	17.8 µM (inactive)
CC1OC(O)CC(OC(=O)c2ccccc2)C1OC(=O)c1ccccc1 (stereo not given)	71.6 µM (inactive)	17.3 µM (inactive)	15.7 µM (inactive)	16 µM (inactive)	10.3 µM (inactive)	–	19.1 µM (inactive)	> 100 µM (inactive)	16.7 µM (inactive)	16.7 µM (inactive)	16.8 µM (inactive)	90.4 µM (inactive)	18.2 µM (inactive)	> 100 µM (inactive)	15.3	49.4 µM (inactive)	–	39.6 µM (inactive)	16.1 µM (inactive)	18.8 µM (inactive)
O=C(O)C(Cc1ccc(O)cn1)NC(=O)C(F)(F)F (stereo not given)	> 100 µM (inactive)	> 100 µM (inactive)	> 100 µM (inactive)	> 100 µM (inactive)	> 100 µM (inactive)	> 100 µM (inactive)	> 100 µM (inactive)	> 100 µM (inactive)	–	–	> 100 µM (inactive)	> 100 µM (inactive)	> 100 µM (inactive)	> 100 µM (inactive)	> 100	> 100 µM (inactive)	–	> 100 µM (inactive)	> 100 µM (inactive)	> 100 µM (inactive)
CC(C)=CC(=O)OC1C2C(C)=CC(O)C(O)C2(C)C2C3(O)OCC24C(CC(=O)OC14)C(C)C3O (stereo not given)	0.168 µM (active)	0.386 µM (active)	0.166 µM (active)	0.0611 µM (active)	0.0462 µM (active)	0.143 µM (active)	0.0339 µM (active)	1.51 µM (inactive)	–	0.0649 µM (active)	0.0378 µM (active)	0.14 µM (active)	–	0.0298 µM (active)	0.476	0.0596 µM (active)	3.13 µM (inactive)	0.0791 µM (active)	0.0362 µM (active)	0.183 µM (active)
CN1C2CCC1CC(C)(O)C2 (stereo not given)	> 100 µM (inactive)	> 100 µM (inactive)	> 100 µM (inactive)	> 100 µM (inactive)	> 100 µM (inactive)	> 100 µM (inactive)	> 100 µM (inactive)	–	> 100 µM (inactive)	–	> 100 µM (inactive)	> 100 µM (inactive)	–	–	> 100	> 100 µM (inactive)	–	> 100 µM (inactive)	> 100 µM (inactive)	> 100 µM (inactive)
O=CCCn1[nH]c(=O)ccc1=O	–	> 100 µM (inactive)	> 100 µM (inactive)	> 100 µM (inactive)	> 100 µM (inactive)	> 100 µM (inactive)	> 100 µM (inactive)	> 100 µM (inactive)	> 100 µM (inactive)	> 100 µM (inactive)	> 100 µM (inactive)	> 100 µM (inactive)	> 100 µM (inactive)	–	> 100	> 100 µM (inactive)	–	–	> 100 µM (inactive)	> 100 µM (inactive)
COc1ccc(N[S+]([O-])c2ccc(-c3ccccc3)cc2)cc1 (stereo not given)	52 µM (inactive)	> 100 µM (inactive)	29.5 µM (inactive)	46 µM (inactive)	> 100 µM (inactive)	> 100 µM (inactive)	> 100 µM (inactive)	–	86.1 µM (inactive)	–	> 100 µM (inactive)	41.8 µM (inactive)	> 100 µM (inactive)	> 100 µM (inactive)	> 100	> 100 µM (inactive)	–	70.3 µM (inactive)	91.4 µM (inactive)	> 100 µM (inactive)
CSCC(CO)NC(=O)/C=C/c1c(C)[nH]c(=O)[nH]c1=O (stereo not given)	596 µM (inactive)	367 µM (inactive)	228 µM (inactive)	690 µM (inactive)	153 µM (inactive)	454 µM (inactive)	53.1 µM (inactive)	> 875 µM (inactive)	–	> 800 µM (inactive)	117 µM (inactive)	791 µM (inactive)	–	45.8 µM (inactive)	485	671 µM (inactive)	641 µM (inactive)	695 µM (inactive)	> 875 µM (inactive)	> 875 µM (inactive)
CCN1C(=O)C(=Cc2ccc(-c3ccccc3)cc2)C(=O)N(CC)C1=S	> 100 µM (inactive)	> 100 µM (inactive)	> 100 µM (inactive)	> 100 µM (inactive)	48.9 µM (inactive)	> 100 µM (inactive)	> 100 µM (inactive)	–	> 100 µM (inactive)	> 100 µM (inactive)	38.5 µM (inactive)	> 100 µM (inactive)	> 100 µM (inactive)	–	> 100	> 100 µM (inactive)	> 100 µM (inactive)	> 100 µM (inactive)	> 100 µM (inactive)	> 100 µM (inactive)
N=c1c2c(=S)n(-c3ccccc3)c(=S)n(-c3ccccc3)c2nc(SCCCN2CCN(c3cccc(Cl)c3)CC2)n1-c1ccccc1	44.7 µM (inactive)	–	> 100 µM (inactive)	> 100 µM (inactive)	> 100 µM (inactive)	> 100 µM (inactive)	> 100 µM (inactive)	50.7 µM (inactive)	–	49.2 µM (inactive)	> 100 µM (inactive)	–	> 100 µM (inactive)	> 100 µM (inactive)	59.2	> 100 µM (inactive)	> 100 µM (inactive)	> 100 µM (inactive)	> 100 µM (inactive)	> 100 µM (inactive)
CNc1ccccc1-c1nc2ccccc2c(=O)o1	–	> 100 µM (inactive)	> 100 µM (inactive)	–	> 100 µM (inactive)	> 100 µM (inactive)	–	–	> 100 µM (inactive)	–	> 100 µM (inactive)	> 100 µM (inactive)	> 100 µM (inactive)	–	> 100	> 100 µM (inactive)	> 100 µM (inactive)	> 100 µM (inactive)	> 100 µM (inactive)	–
